tested on: Dirofilaria immitis; assay: Heartworm screen Dirofilaria immitis (stage DiMF/DiL4 not specified in the tables); type: cell-based; conditions: read-out: D. immitis Activity class

Q: How did the IC50 turn out when `COc1ccc(S(=O)(=O)Nc2cccc3cccnc23)cn1` [Compound 144, 6-methoxy-N-(quinolin-8-yl)pyridine-3-sulfonamide] was run?
A: The IC50 was 0.5 to 5 µM.

Q: For `CCn1ccnc1S(=O)(=O)Nc1cccc2c(C)ccnc12` [Compound 104, 1-ethyl-N-(4-methylquin-olin-8-yl)-1H-imidazole-2-sulfonamide], which IC50 is on record?
A: The IC50 was 0.2 to 0.5 µM.

Q: Which IC50 does the source give for `Cc1cc(C)c(S(=O)(=O)Nc2cccc3cccnc23)cn1` [Compound 164, 4,6-dimethyl-N-(quinolin-8-yl)pyridine-3-sulfonamide] here?
A: The IC50 was 0.5 to 5 µM.

Q: Which IC50 does the source give for `O=S(=O)(Nc1cccc2cccnc12)c1ccc(C2CC2)nc1` [Compound 142, 6-cyclopropyl-N-(quinolin-8-yl)pyridine-3-sulfonamide] here?
A: Its IC50 is 0.5 to 5 µM.

Q: For `Cc1ccc(C(F)(F)F)nc1S(=O)(=O)Nc1cccc2cccnc12` [Compound 163, 3-methyl-N-(quinolin-8-yl)-6-(trifluoromethyl) pyridine-2-sulfonamide], which IC50 is on record?
A: Its IC50 is 0.5 to 5 µM.

Q: How did the IC50 turn out when `CCn1ccnc1S(=O)(=O)Nc1ccc(S(C)(=O)=O)c2cccnc12` [Compound 294, 1-ethyl-N-(5-(methylsulfonyl)quinolin-8-yl)-1H-imidazole-2-sulfonamide] was run?
A: The IC50 was 0.2 to 0.5 µM.

Q: For `CCn1ccnc1S(=O)(=O)Nc1cccc2c(-c3ccccc3)ccnc12` [Compound 291, 1-ethyl-N-(4-phenylquinolin-8-yl)-1H-imidazole-2-sulfonamide], which IC50 is on record?
A: The IC50 was < 0.2 µM.

Q: How did the IC50 turn out when `Cc1cc(C(F)(F)F)ncc1S(=O)(=O)Nc1cccc2cccnc12` [Compound 166, 4-methyl-N-(quinolin-8-yl)-6-(trifluoromethyl) pyridine-3-sulfonamide] was run?
A: The IC50 was 0.5 to 5 µM.

Q: With `O=S(=O)(Nc1cccc2cccnc12)c1cccnc1C(F)(F)F` [Compound 146, N-(quinolin-8-yl)-2-(trifluoromethyl) pyridine-3-sulfonamide] as the compound, how does the IC50 read?
A: The IC50 was 0.5 to 5 µM.

Q: `O=S(=O)(Nc1cccc2cccnc12)c1ccc(C(F)(F)F)cn1` [Compound 145, N-(quinolin-8-yl)-5-(trifluoromethyl) pyridine-2-sulfonamide] was tested. Which IC50 did it give?
A: Its IC50 is 0.2 to 0.5 µM.

Q: `CCn1ccnc1S(=O)(=O)Nc1cc(C(=O)c2ccccc2)cc2cccnc12` [Compound 297, N-(6-benzoylquinolin-8-yl)-1-ethyl-1H-imidazole-2-sulfonamide] was tested. Which IC50 did it give?
A: Its IC50 is 0.2 to 0.5 µM.

Q: How did the IC50 turn out when `O=S(=O)(Nc1ccc(Oc2cccc(C(F)(F)F)c2)c2cccnc12)c1nccn1CC(F)(F)F` [Compound 292, 1-(2,2,2-trifluoroethyl)-N-(5-(3-(trifluoromethyl)phenoxy)quinolin-8-yl)-1H-imidazole-2-sulfonamide] was run?
A: Its IC50 is < 0.2 µM.

Q: Which IC50 does the source give for `Cc1cnc(S(=O)(=O)Nc2cccc3cccnc23)n1C` [Compound 233, 1,5-dimethyl-N-(quinolin-8-yl)-1H-imidazole-2-sulfonamide] here?
A: Its IC50 is 0.2 to 0.5 µM.

Q: With `Cc1cnc2c(NS(=O)(=O)c3ncccc3C)cccc2c1` [Compound 66, 3-methyl-N-(3-methyl-quinolin-8-yl)pyridine-2-sulfonamide] as the compound, how does the IC50 read?
A: The IC50 was 0.5 to 5 µM.

Q: With `Cc1ccnc2c(NS(=O)(=O)c3ccc(C(F)(F)F)nc3)cccc12` [Compound 8, N-(4-methyl-quinolin-8-yl)-6-(trifluoro-methyl)pyr-idine-3-sulfon-amide] as the compound, how does the IC50 read?
A: Its IC50 is 0.2 to 0.5 µM.

Q: For `CCn1ccnc1S(=O)(=O)Nc1cccc2c(C(C)=O)ccnc12` [Compound 288, N-(4-acetylquinolin-8-yl)-1-ethyl-1H-imidazole-2-sulfonamide], which IC50 is on record?
A: The IC50 was 0.2 to 0.5 µM.

tested on: Onchocerca gutturosa adult male worms; assay: Onchocerca gutturosa in vitro screening model: adult worm motility score and MTT/formazan viability; type: cell-based; conditions: read-out: O. gutt Activity class

Q: `CCn1cccc1S(=O)(=O)Nc1cccc2cccnc12` [Compound 227, 1-ethyl-N-(quinolin-8-yl)-1H-pyrrole-2-sulfonamide] was tested. Which IC50 did it give?
A: Its IC50 is < 0.2 µM.

Q: With `Cn1ccnc1S(=O)(=O)Nc1cccc2cccnc12` [Compound 251, 1-methyl-N-(quinolin-8-yl)-1H-imidazole-2-sulfonamide] as the compound, how does the IC50 read?
A: The IC50 was < 0.2 µM.

Q: Which IC50 does the source give for `Cc1cccnc1S(=O)(=O)Nc1cncc2cccnc12` [Compound 194, 3-methyl-N-(1,6-naphthyridin-8-yl)pyridine-2-sulfonamide] here?
A: Its IC50 is 0.2 to 0.5 µM.

Q: With `N#Cc1ccnc(S(=O)(=O)Nc2c(Cl)ccc3cccnc23)c1` [Compound 71, N-(7-chloro-quinolin-8-yl)-4-cyano-pyridine-2-sulfonamide] as the compound, how does the IC50 read?
A: Its IC50 is < 0.2 µM.

Source: patent US20240148744A1 (Celgene Corporation, priority 2021, published 2024)
